“And” between values parts separate entries of the source, which are not always exact repeats. Identical values can stand only once.
Experiments:
human SCD1 = human SCD1 (Homo sapiens (Human), UniProt O00767); assay: Yeast growth assay, strain expressing human SCD1 as the sole desaturase (reduced growth as surrogate for SCD inhibition); assay type: cell-based; conditions: yeast with OLE1 deleted expressing human SCD1 from a plasmid; growth read as OD600 after 40 h at 30° C.; top drug concentration 33.3 μM
Procedure, shortened: (§1)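 Yeast lacking OLE1 depend on plasmid-borne human SCD1 or SCD5 and are tested in SD-Ura medium without oleic/palmitoleic acid or Tween.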

human SCD5 = human SCD5 (Homo sapiens (Human), UniProt Q86SK9); assay: Yeast growth assay, strain expressing human SCD5 as the sole desaturase (reduced growth as surrogate for SCD inhibition); assay type: cell-based; conditions: yeast with OLE1 deleted expressing human SCD5 from a plasmid; growth read as OD600 after 40 h at 30° C.; top drug concentration 33.3 μM
Procedure, shortened: as §1

Sequence of human SCD5 (Q86SK9 whole entry): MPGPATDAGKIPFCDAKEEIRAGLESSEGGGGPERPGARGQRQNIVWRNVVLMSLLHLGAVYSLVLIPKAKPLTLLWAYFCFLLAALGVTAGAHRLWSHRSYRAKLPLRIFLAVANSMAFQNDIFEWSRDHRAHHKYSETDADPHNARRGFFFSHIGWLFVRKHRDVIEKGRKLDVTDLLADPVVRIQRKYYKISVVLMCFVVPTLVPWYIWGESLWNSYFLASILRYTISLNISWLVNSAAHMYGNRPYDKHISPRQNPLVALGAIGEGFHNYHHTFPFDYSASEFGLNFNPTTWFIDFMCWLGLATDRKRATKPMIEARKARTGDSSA
Sequence of human SCD1 (O00767 whole entry): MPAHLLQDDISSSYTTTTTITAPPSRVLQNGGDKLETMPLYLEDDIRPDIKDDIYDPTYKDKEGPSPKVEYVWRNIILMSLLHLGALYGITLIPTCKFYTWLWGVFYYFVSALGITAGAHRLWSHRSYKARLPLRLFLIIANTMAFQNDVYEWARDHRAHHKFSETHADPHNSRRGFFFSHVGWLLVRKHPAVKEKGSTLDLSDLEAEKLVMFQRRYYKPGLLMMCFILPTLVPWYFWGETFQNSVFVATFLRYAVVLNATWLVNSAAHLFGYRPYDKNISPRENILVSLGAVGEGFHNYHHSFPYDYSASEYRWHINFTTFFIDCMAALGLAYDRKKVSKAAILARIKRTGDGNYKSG

| Structure (SMILES) | IC50 (human SCD1) | IC50 (human SCD5) |
| --- | --- | --- |
| O=C(Nc1cnn(Cc2ccccc2)c1)c1cc(-c2ccncc2)on1 [Compound 124, N-(1-benzyl-1H-pyrazol-4-yl)-5-(pyridin-4-yl)isoxazole-3-carboxamide] | 5.7 µM | 7 µM |
| O=C(Nc1cnn(Cc2cccc(F)c2)c1)c1cc(-c2ccns2)on1 [Compound 81, N-(1-(3-fluorobenzyl)-1H-pyrazol-4-yl)-5-(isothiazol-5-yl)isoxazole-3-carboxamide] | 0.232 µM | 1.6 µM |
| O=C(Nc1cnn(Cc2ccccc2)c1)c1cc(-c2ccccc2F)no1 [Compound 130] | > 45 µM | > 45 µM |
| O=C(Nc1cnn(Cc2ccccc2)c1)c1cc(-c2ccc(F)cc2F)on1 [Compound 157] | > 45 µM | > 45 µM |
| N#Cc1ccccc1-c1cc(C(=O)Nc2cnn(Cc3ccccc3)c2)no1 [Compound 135] | > 45 µM | > 45 µM |
| N#Cc1ccc(Cn2cc(NC(=O)c3cc(-c4ccccc4)on3)cn2)cc1 [Compound 42] | > 45 µM | > 45 µM |
| O=C(c1cc(-c2ccccc2)on1)N1CCC2(CCNC2)C1 (stereo not shown) [Compound 340] | > 45 µM | > 45 µM |
| N#Cc1ccc(-c2cc(C(=O)Nc3cnn(Cc4cc(F)ccc4C(F)(F)F)c3)no2)nc1 [Compound 99] | > 45 µM | > 45 µM |
| O=C(Nc1cnn(Cc2cc(F)ccc2C(F)(F)F)c1)c1cc(-c2ccccc2)on1 [Compound 74] | > 45 µM | > 45 µM |
| O=C(c1cc(-c2ccccc2)on1)N1CC2(C=C(c3ccccc3)C2)C1 [Compound 225, (6-phenyl-2-azaspiro[3.3]hept-6-en-2-yl)-(5-phenylisoxazol-3-yl)methanone] | > 45 µM | 6.41 µM |
| CC1(C(=O)Nc2ccccc2)CN(C(=O)c2cc(-c3ccccc3)on2)C1 [Compound 238] | > 45 µM | > 45 µM |
| O=C(Nc1cnn(Cc2cccc(F)c2)c1)c1cc(-c2ccncc2)on1 [Compound 56, N-(1-(3-fluorobenzyl)-1H-pyrazol-4-yl)-5-(pyridin-4-yl)isoxazole-3-carboxamide] | 2.41 µM | 2.69 µM |
| O=C(Nc1cnnc(Oc2ccccc2)c1)c1cc(-c2ccccc2)on1 [Compound 311] | > 45 µM | > 45 µM |
| O=C(NC1CCN(Cc2ccccc2)CC1)c1cc(-c2ccco2)on1 [Compound 285] | > 45 µM | > 45 µM |
| O=C(c1cc(-c2ccccc2)on1)N1CCC(c2ccccc2)C1 (stereo not shown) [Compound 330] | > 45 µM | 2.6 µM |
| O=C(c1cc(-c2ccco2)on1)N1CC(F)C1 [Compound 244] | > 45 µM | > 45 µM |
| O=C(c1cc(-c2ccc3c(c2)OCO3)on1)N1CC(Cc2ccccc2)C1 [Compound 216, [5-(1,3-benzodioxol-5-yl)isoxazol-3-yl]-(3-benzylazetidin-1-yl)methanone] | > 45 µM | 1.13 µM |
| O=C(Nc1cnn(Cc2cccc(F)c2)c1)c1cc(-c2ccccc2)on1 [Compound 53] | 0.07 µM | > 45 µM |
| O=C(c1cc(-c2cnccn2)on1)N1CC(c2ccccc2)C1 [Compound 259, (3-phenylazetidin-1-yl)(5-(pyrazin-2-yl)isoxazol-3-yl)methanone] | > 45 µM | 5 µM |

| Structure (SMILES) | IC50 (human SCD1) | IC50 (human SCD5) |
| --- | --- | --- |
| O=C(Nc1cnn(Cc2cccc(F)c2)c1)c1cc(-c2nncs2)on1 [Compound 174] | 8.2 µM | > 45 µM |
| O=C(c1cc(-c2ccco2)on1)N1CC(Cc2ccccc2)C1 [Compound 205, (3-benzylazetidin-1-yl)-[5-(2-furyl)isoxazol-3-yl]methanone] | 0.23 µM | 0.63 µM |
| CN1CCC2(CCN(C(=O)c3cc(-c4ccccc4)on3)C2)C1 (stereo not shown) [Compound 342] | > 45 µM | > 45 µM |
| O=C(Nc1cnn(Cc2cnccc2C(F)(F)F)c1)c1cc(-c2ccncc2)on1 [Compound 202] | > 45 µM | > 45 µM |
| N#Cc1cccc(Cn2cc(NC(=O)c3cc(-c4ccccc4)on3)cn2)c1 [Compound 132] | > 45 µM | > 45 µM |
| CC(C)(c1ccccc1)n1cc(NC(=O)c2cc(-c3ccccc3)on2)cn1 [Compound 64] | > 45 µM | > 45 µM |
| CN1CCN(c2cc(C(=O)Nc3cnn(Cc4ccccc4)c3)no2)CC1 [Compound 183] | > 45 µM | > 45 µM |
| CC(C)c1cc(C(=O)Nc2cc3ccccn3n2)no1 [Compound 176] | > 45 µM | > 45 µM |
| N#Cc1cccc(-c2cc(C(=O)N3CCC(c4ccccc4)CC3)no2)c1 [Compound 317] | > 45 µM | > 45 µM |
| CNC(=O)c1cc(C(=O)N2CCC(c3ccccc3)C2)no1 (stereo not shown) [Compound 347] | 4.19 µM | 5.28 µM |
| C=C(C)c1cc(C(=O)Nc2cnn(Cc3ccccc3)c2)on1 [Compound 153] | 9 µM | 7 µM |
| N#Cc1cccc(-c2cc(C(=O)Nc3cnn(Cc4ccccc4)c3)no2)c1 [Compound 127] | 4.62 µM | > 45 µM |
| O=C(NC1CCN(Cc2ccccc2)C1)c1cc(-c2ccco2)on1 (stereo not shown) [Compound 337] | > 45 µM | > 45 µM |
| O=C(Nc1cnn(Cc2ccccc2)c1)c1cc(-c2cncs2)no1 [Compound 131] | > 45 µM | > 45 µM |
| CNC(=O)c1cccc(-c2cc(C(=O)N3CCC(c4ccccc4)CC3)no2)c1 [Compound 303] | > 45 µM | > 45 µM |
| Cc1nn(C)c(C)c1NC(=O)c1cc(-c2ccco2)on1 [Compound 1] | > 45 µM | > 45 µM |
| O=C(Nc1cnn(Cc2ccc(Cl)c(Cl)c2)c1)c1cc(-c2ccco2)on1 [Compound 29] | > 45 µM | > 45 µM |
| C[S+]([O-])CCC(c1ccccc1)n1cc(NC(=O)c2cc(-c3ccccc3)on2)cn1 (stereo not shown) [Compound 71] | > 45 µM | > 45 µM |

Second part, the compound after the results:

| IC50 (human SCD1) | IC50 (human SCD5) | Structure (SMILES) |
| --- | --- | --- |
| > 45 µM | > 45 µM | O=C(c1cc(-c2ccc3c(c2)OCO3)on1)N1CCCC1c1ncccc1F (stereo not shown) [Compound 457] |
| > 45 µM | > 45 µM | O=C(c1cc(-c2ccccc2)on1)N1CCC(c2cccnc2)CC1 [Compound 322] |
| 0.321 µM | 3.14 µM | O=C(c1cc(-c2ccncn2)on1)N1CC(c2ccccc2)C1 [Compound 257, (3-phenylazetidin-1-yl)(5-(pyrimidin-4-yl)isoxazol-3-yl)methanone] |
| > 45 µM | > 45 µM | COc1ccc(C2CCCN2C(=O)c2cc(-c3ccc4c(c3)OCO4)on2)nc1 (stereo not shown) [Compound 145] |
| > 45 µM | > 45 µM | O=C(c1cc(-c2ccc3c(c2)OCO3)on1)N1CCCC1c1ccncc1 (stereo not shown) [Compound 363] |
| > 45 µM | > 45 µM | O=C(c1cc(-c2ccc3c(c2)OCO3)on1)N1CCCC1c1ccccn1 (stereo not shown) [Compound 361] |
| > 45 µM | 8.9 µM | O=C(c1cc(-c2ccccc2)on1)N1CCCC1Cc1ccccc1 (stereo not shown) [Compound 436] |
| > 45 µM | > 45 µM | O=C(c1cc(-c2ccc3c(c2)OCO3)on1)N1CCn2ccnc2C1 [Compound 269] |
| > 45 µM | > 45 µM | COc1ccc(-c2cc(C(=O)N3CCCC3c3ccc(OC)cc3)no2)cc1 (stereo not shown) [Compound 376] |
| > 45 µM | > 45 µM | Cc1cc(C2CCCN2C(=O)c2cc(-c3ccc4c(c3)OCO4)on2)on1 (stereo not shown) [Compound 353] |
| > 45 µM | > 45 µM | Cc1nn(C)c2cc(-c3cc(C(=O)N4CCN(c5ccccc5)CC4)no3)ccc12 [Compound 278] |
| > 45 µM | 9 µM | O=C(c1cc(-c2ccccn2)on1)N1CCC(c2cccc(F)c2)C1 (stereo not shown) [Compound 352] |
| 37.2 µM | > 45 µM | O=C(c1cc(-c2ccc(=O)[nH]c2)on1)N1CCC[C@H]1c1ccccc1 [Compound 451] |
| 29.4 µM | > 45 µM | Cn1ccc(-c2cc(C(=O)N3CCC[C@H]3c3ccccc3)no2)cc1=O [Compound 428] |
| > 45 µM | > 45 µM | O=C(c1cc(-c2ccc3c(c2)OCO3)on1)N1Cc2ccccc2C1 [Compound 328] |
| > 45 µM | > 45 µM | O=C(c1cc(-c2ccc3c(c2)OCO3)on1)N1CCCC1c1ncccc1Br (stereo not shown) [Compound 447] |
| > 45 µM | > 45 µM | Cc1nn(C)c2cc(-c3cc(C(=O)N4CCCC4c4cccnn4)no3)ccc12 (stereo not shown) [Compound 462] |
| > 45 µM | > 45 µM | O=C(c1cc(-c2ccc3c(c2)OCO3)on1)N1CCC1c1ccccc1F (stereo not shown) [Compound 218] |
| 30 µM | > 45 µM | O=C(c1cc(-c2ccc3c(c2)OCO3)on1)N1CC(O)C[C@H]1c1ccccc1 (stereo partly shown) [Compound 414] |
| > 45 µM | > 45 µM | O=C(c1cc(-c2ccccc2)on1)N1CCC(c2ccccc2F)C1 (stereo not shown) [Compound 335] |
| 0.866 µM | 1.92 µM | O=C(c1cc(-c2ccc3c(c2)OCO3)on1)N1CC(c2cccc(F)c2)C1 [Compound 239, (5-(benzo[d][1,3]dioxol-5-yl)isoxazol-3-yl)(3-(3-fluorophenyl)azetidin-1-yl)methanone] |
| 23 µM | 1.8 µM | COc1ccc(-c2cc(C(=O)N3CC(c4ccccc4)C3)no2)nn1 [Compound 255, (5-(6-methoxypyridazin-3-yl)isoxazol-3-yl)(3-phenylazetidin-1-yl)methanone] |
| 30 µM and 33.9 µM | 3.5 µM and 2.28 µM | O=C(c1cc(-c2ccc3c(c2)OCO3)on1)N1CCC1c1ccccc1 (stereo not shown) [Compound 204, (5-(benzo[d][1,3]dioxol-5-yl)isoxazol-3-yl)(2-phenylazetidin-1-yl)methanone] |
| 33.3 µM | > 45 µM | O=C(c1cc(-c2cccnc2)on1)N1CCC[C@H]1c1ccccc1 [Compound 405] |
| > 45 µM | > 45 µM | Cc1cnoc1C1CCCN1C(=O)c1cc(-c2ccc3c(c2)OCO3)on1 (stereo not shown) [Compound 439] |
